Kd data for 27 compounds are collected here from patent US12043632B2, “6-heteroaryloxy benzimidazoles and azabenzimidazoles as JAK2 inhibitors” (Ajax Therapeutics, Inc., priority 2020, dated 2024).

Molecules are shown by their SMILES.

The test deals with T1, JAK2 (JH1domain-catalytic, Y1007F,Y1008F) kinase (Homo sapiens, UniProt O60674, Y1007F/Y1008F).
T1 construct: JAK2 (JH1domain-catalytic, Y1007F,Y1008F) kinase was expressed as N-terminal fusion; made in house; host or cells: transiently transfected HEK293 cells
T1 sequence (O60674 849-1124 Y1007F/Y1008F limits assumed): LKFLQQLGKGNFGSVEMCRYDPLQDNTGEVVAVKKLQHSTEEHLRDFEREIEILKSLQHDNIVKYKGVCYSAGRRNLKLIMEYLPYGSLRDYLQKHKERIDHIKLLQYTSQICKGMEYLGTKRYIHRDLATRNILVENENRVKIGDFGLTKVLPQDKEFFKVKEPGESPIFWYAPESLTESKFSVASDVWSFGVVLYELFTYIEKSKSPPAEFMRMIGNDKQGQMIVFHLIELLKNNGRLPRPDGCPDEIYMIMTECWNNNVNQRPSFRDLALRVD
Description: JAK2 JH1 Domain Binding Assay. The conditions noted are these: qPCR readout.

For the compound `Cn1c(Nc2cc(C(C)(C)C)n([C@@H]3CCOC3)n2)nc2ncc(Oc3cnn4ccncc34)c(Cl)c21` [Example I-21, (R)—N-(5-(tert-butyl)-1-(tetrahydrofuran-3-yl)-1H-pyrazol-3-yl)-7-chloro-1-methyl-6-(pyrazolo[1,5-a]pyrazin-3-yloxy)-1H-imidazo[4,5-b]pyridin-2-amine], the Kd is < 10 nM.
With `Cn1c(Nc2cc(C(C)(C)C)n([C@@H]3CCOC3)n2)nc2ncc(Oc3cnc4[nH]cc(C#N)c4c3)cc21` [Example I-9] the figure was 50 to 1000 nM; with `CNc1nccn2ncc(Oc3cnc4nc(Nc5cc(CN6CC(F)C6)cc(C(F)(F)F)c5)n(C)c4c3Cl)c12` [Example I-246, 7-chloro-N-(3-((3-fluoroazetidin-1-yl)methyl)-5-(trifluoromethyl)phenyl)-1-methyl-6-((4-(methylamino)pyrazolo[1,5-a]pyrazin-3-yl)oxy)-1H-imidazo[4,5-b]pyridin-2-amine], 10 to 50 nM.
In turn, `Cn1c(Nc2cc(C(C)(C)C)n([C@H]3CCOC3)n2)nc2ncc(Oc3cnn4ccnc4c3)c(Cl)c21` [Example I-13, (S)—N-(5-(tert-butyl)-1-(tetrahydrofuran-3-yl)-1H-pyrazol-3-yl)-7-chloro-6-(imidazo[1,2-b]pyridazin-7-yloxy)-1-methyl-1H-imidazo[4,5-b]pyridin-2-amine] showed a Kd of 10 to 50 nM.
The value for `CNc1nccn2ncc(Oc3cnc4nc(Nc5cc6n(n5)CCCC6(C)C)n(C)c4c3Cl)c12` [Example I-125, 7-chloro-N-(4,4-dimethyl-4,5,6,7-tetrahydropyrazolo[1,5-a]pyridin-2-yl)-1-methyl-6-((4-(methylamino)pyrazolo[1,5-a]pyrazin-3-yl)oxy)-1H-imidazo[4,5-b]pyridin-2-amine] was 10 to 50 nM.
For `CNc1cn2ncc(Oc3cnc4nc(Nc5cc(O[C@H]6CCN(C)C6)cc(C(F)(F)F)c5)n(C)c4c3Cl)c2cn1` [Example I-314, (S)-7-chloro-1-methyl-6-((6-(methylamino)pyrazolo[1,5-a]pyrazin-3-yl)oxy)-N-(3-((1-methylpyrrolidin-3-yl)oxy)-5-(trifluoromethyl)phenyl)-1H-imidazo[4,5-b]pyridin-2-amine], the Kd was < 10 nM.
The value for `Cn1c(Nc2ccc(CN3CCC(O)C3)c(C(F)(F)F)c2)nc2ncc(Oc3cnn4ccncc34)c(Cl)c21` (stereo in doubt) [Example I-185, (S)-1-(4-((7-chloro-1-methyl-6-(pyrazolo[1,5-a]pyrazin-3-yloxy)-1H-imidazo[4,5-b]pyridin-2-yl)amino)-2-(trifluoromethyl)benzyl)pyrrolidin-3-ol] was < 10 nM.
With `Cc1n[nH]c2ncc(Oc3cnc4nc(Nc5cc(C(C)(C)C)n([C@@H]6CCOC6)n5)n(C)c4c3)cc12` [Example I-3] the figure was < 10 nM; with `Cn1c(Nc2cc(C(C)(C)C)n([C@@H]3COC[C@H]3O)n2)nc2ncc(Oc3cnc4cnc(C5CC5)n4c3)c(C(F)F)c21` (single isomer, unassigned) [Example I-93-b], 50 to 1000 nM; with `COCCOc1ccc2c(Oc3cnc4nc(Nc5cc(C6CC6)nn(CCO)c5=O)n(C)c4c3Cl)cnn2c1` [Example I-153, 4-((7-chloro-6-((6-(2-methoxyethoxy)pyrazolo[1,5-a]pyridin-3-yl)oxy)-1-methyl-1H-imidazo[4,5-b]pyridin-2-yl)amino)-6-cyclopropyl-2-(2-hydroxyethyl)pyridazin-3(2H)-one], < 10 nM.
Turning to `Cn1c(Nc2cc(C(C)(C)C)n([C@@H]3CCOC34CC4)n2)nc2ncc(Oc3cnn4ccncc34)c(Cl)c21` (single isomer, unassigned) [Example I-41-a], the Kd is < 10 nM.
With `CCn1c(C(C)(C)C)ncc(Nc2nc3ncc(Oc4cnn5cc(NC)ncc45)c(Cl)c3n2C)c1=O` [Example I-345, 2-(tert-butyl)-5-((7-chloro-1-methyl-6-((6-(methylamino)pyrazolo[1,5-a]pyrazin-3-yl)oxy)-1H-imidazo[4,5-b]pyridin-2-yl)amino)-3-ethylpyrimidin-4(3H)-one] the figure was 10 to 50 nM; with `Cn1cc(C(F)(F)F)cc(Nc2nc3ncc(Oc4cnn5cc(C#N)ccc45)c(Cl)c3n2C)c1=O` [Example I-292, 3-((7-chloro-1-methyl-2-((1-methyl-2-oxo-5-(trifluoromethyl)-1,2-dihydropyridin-3-yl)amino)-1H-imidazo[4,5-b]pyridin-6-yl)oxy)pyrazolo[1,5-a]pyridine-6-carbonitrile], < 10 nM; with `Cn1cc(C2CC2)cc(Nc2nc3ncc(Oc4cnn5ccnc(OCCN6CCOCC6)c45)c(Cl)c3n2C)c1=O` [Example I-136, 3-((7-chloro-1-methyl-6-((4-(2-morpholinoethoxy)pyrazolo[1,5-a]pyrazin-3-yl)oxy)-1H-imidazo[4,5-b]pyridin-2-yl)amino)-5-cyclopropyl-1-methylpyridin-2(1H)-one], 10 to 50 nM.
With `CNc1cn2ncc(Oc3cnc4nc(Nc5cc(C(F)(F)F)cn(-c6cnn(C)c6)c5=O)n(C)c4c3Cl)c2cn1` [Example I-328, 3-((7-chloro-1-methyl-6-((6-(methylamino)pyrazolo[1,5-a]pyrazin-3-yl)oxy)-1H-imidazo[4,5-b]pyridin-2-yl)amino)-1-(1-methyl-1H-pyrazol-4-yl)-5-(trifluoromethyl)pyridin-2(1H)-one] the figure was 10 to 50 nM.
Consider `CN1CC[C@@H](n2nc(Nc3nc4ncc(Oc5cnc6scnc6c5)c(Cl)c4n3C)cc2C(C)(C)C)C1` [Example I-27, (R)—N-(5-(tert-butyl)-1-(1-methylpyrrolidin-3-yl)-1H-pyrazol-3-yl)-7-chloro-1-methyl-6-(thiazolo[5,4-b]pyridin-6-yloxy)-1H-imidazo[4,5-b]pyridin-2-amine], for which the Kd lay in the range of 10 to 50 nM.
Regarding `[2H]C([2H])([2H])n1cc(C(F)(F)F)cc(Nc2nc3ncc(Oc4cnn5cc(NC)ncc45)c(Cl)c3n2C)c1=O` [Example I-325, 3-((7-chloro-1-methyl-6-((6-(methylamino)pyrazolo[1,5-a]pyrazin-3-yl)oxy)-1H-imidazo[4,5-b]pyridin-2-yl)amino)-1-(methyl-d3)-5-(trifluoromethyl)pyridin-2(1H)-one], the Kd was in the range of 10 to 50 nM.
The value for `CNc1cn2ncc(Oc3cnc4nc(Nc5cc(C(F)(F)F)n(C6CC7(COC7)C6)n5)n(C)c4c3Cl)c2cn1` [Example I-310, N-(1-(2-oxaspiro[3.3]heptan-6-yl)-5-(trifluoromethyl)-1H-pyrazol-3-yl)-7-chloro-1-methyl-6-((6-(methylamino)pyrazolo[1,5-a]pyrazin-3-yl)oxy)-1H-imidazo[4,5-b]pyridin-2-amine] was 50 to 1000 nM.
With `Cc1n[nH]c2ncc(Oc3cnc4nc(Nc5cc(C(C)(C)C)n([C@H]6CCOC6)n5)n(C)c4c3)cc12` [Example I-4, (S)—N-(5-(tert-butyl)-1-(tetrahydrofuran-3-yl)-1H-pyrazol-3-yl)-1-methyl-6-((3-methyl-1H-pyrazolo[3,4-b]pyridin-5-yl)oxy)-1H-imidazo[4,5-b]pyridin-2-amine] the figure was < 10 nM; with `[2H]C([2H])([2H])n1cc(C(F)(F)F)cc(Nc2nc3ncc(Oc4cnn5ccnc(NC)c45)c(Cl)c3n2C)c1=O` [Example I-217, 3-((7-chloro-1-methyl-6-((4-(methylamino)pyrazolo[1,5-a]pyrazin-3-yl)oxy)-1H-imidazo[4,5-b]pyridin-2-yl)amino)-1-(methyl-d3)-5-(trifluoromethyl)pyridin-2(1H)-one], < 10 nM; with `CN(C)c1n[nH]c2ncc(Oc3cnc4nc(Nc5cc(C(F)(F)F)cn(C)c5=O)n(C)c4c3C#N)cc12` [Example I-368, 6-((3-(dimethylamino)-1H-pyrazolo[3,4-b]pyridin-5-yl)oxy)-1-methyl-2-((1-methyl-2-oxo-5-(trifluoromethyl)-1,2-dihydropyridin-3-yl)amino)-1H-imidazo[4,5-b]pyridine-7-carbonitrile], < 10 nM.
Turning to `Cn1c(Nc2cc(C(F)(F)F)cn([C@H]3C[C@@H](O)C3)c2=O)nc2ncc(Oc3cnn4ccccc34)c(C#N)c21` [Example I-167, cis-2-((1-(3-hydroxycyclobutyl)-2-oxo-5-(trifluoromethyl)-1,2-dihydropyridin-3-yl)amino)-1-methyl-6-(pyrazolo[1,5-a]pyridin-3-yloxy)-1H-imidazo[4,5-b]pyridine-7-carbonitrile], the Kd was < 10 nM.
With `CNc1cn2ncc(Oc3cnc4nc(Nc5cc(C(F)(F)F)cn(C)c5=O)n(C)c4c3OC)c2cn1` [Example I-318, 3-((7-methoxy-1-methyl-6-((6-(methylamino)pyrazolo[1,5-a]pyrazin-3-yl)oxy)-1H-imidazo[4,5-b]pyridin-2-yl)amino)-1-methyl-5-(trifluoromethyl)pyridin-2(1H)-one] the figure was 10 to 50 nM; with `Cn1cc(C(F)(F)F)cc(Nc2nc3ncc(Oc4cnc5[nH]c(C6CC6)cc5c4)c(Cl)c3n2C)c1=O` [Example I-294, 3-((7-chloro-6-((2-cyclopropyl-1H-pyrrolo[2,3-b]pyridin-5-yl)oxy)-1-methyl-1H-imidazo[4,5-b]pyridin-2-yl)amino)-1-methyl-5-(trifluoromethyl)pyridin-2(1H)-one], 10 to 50 nM; with `Cn1c(Nc2ccc(CN3CCN(CCO)CC3)c(C(F)(F)F)c2)nc2ncc(Oc3cnn4ccncc34)c(Cl)c21` [Example I-207, 2-(4-(4-((7-chloro-1-methyl-6-(pyrazolo[1,5-a]pyrazin-3-yloxy)-1H-imidazo[4,5-b]pyridin-2-yl)amino)-2-(trifluoromethyl)benzyl)piperazin-1-yl)ethan-1-ol], < 10 nM.
With `COc1c(Oc2cnn3ccncc23)cnc2nc(Nc3cc(C4CC4)cn(CC(C)(C)OC)c3=O)n(C)c12` [Example I-106, 5-cyclopropyl-3-((7-methoxy-1-methyl-6-(pyrazolo[1,5-a]pyrazin-3-yloxy)-1H-imidazo[4,5-b]pyridin-2-yl)amino)-1-(2-methoxy-2-methylpropyl)pyridin-2(1H)-one] the figure was 10 to 50 nM; with `COc1c(Oc2cnn3ccccc23)cnc2nc(Nc3cc(C4CC4)cn([C@@H]4CCCOC4)c3=O)n(C)c12` (single isomer, unassigned) [Example I-101-b], < 10 nM.
